Measured values: the NIST ThermoML archive (doi:10.1021/je5010214)

Settings: Liquid, Vibrating tube method

CC(C)CO [2-methyl-1-propanol]
Settings | mass density [kg/m3]
303.15 K, 20042 kPa | 809.402
303.15 K, 25084 kPa | 812.578
303.15 K, 30167 kPa | 816.191
303.15 K, 32070 kPa | 817.319
303.15 K, 33147 kPa | 817.694
303.15 K, 35162 kPa | 818.815
303.15 K, 38019 kPa | 820.574
303.15 K, 39970 kPa | 821.716
303.15 K, 42004 kPa | 823.024
303.15 K, 45033 kPa | 824.95
303.15 K, 49864 kPa | 827.592
303.15 K, 52115 kPa | 829.036
303.15 K, 55239 kPa | 830.776
303.15 K, 58089 kPa | 832.479
303.15 K, 60079 kPa | 833.282
303.15 K, 62294 kPa | 834.706
303.15 K, 65137 kPa | 835.715
303.16 K, 270.1 kPa | 793.901
303.16 K, 464.4 kPa | 794.084
303.16 K, 779.6 kPa | 794.287
303.16 K, 2945 kPa | 796.031
303.16 K, 4911.2 kPa | 797.923
303.16 K, 7058.6 kPa | 799.569
303.16 K, 12047 kPa | 803.47
303.16 K, 22055 kPa | 811.092
303.16 K, 28094 kPa | 815.049
303.16 K, 32939 kPa | 817.604
303.16 K, 34037 kPa | 818.139
303.16 K, 48317 kPa | 826.769
303.16 K, 66124 kPa | 836.43
308.15 K, 96.7 kPa | 791.579
308.15 K, 250.6 kPa | 791.714
308.15 K, 562.2 kPa | 791.995
308.15 K, 991.9 kPa | 792.349
308.15 K, 5219.3 kPa | 795.881
308.15 K, 10282 kPa | 799.926
308.15 K, 15083 kPa | 803.575
308.15 K, 32866 kPa | 815.75
308.15 K, 35203 kPa | 817.171
308.15 K, 48031 kPa | 824.96
308.15 K, 55094 kPa | 828.952
308.15 K, 60161 kPa | 831.729
308.15 K, 62192 kPa | 832.798
308.15 K, 66004 kPa | 834.804
308.16 K, 770.2 kPa | 792.158
308.16 K, 2101.2 kPa | 793.3
308.16 K, 3195.1 kPa | 794.224
308.16 K, 7083 kPa | 797.398
308.16 K, 9108 kPa | 799.011
308.16 K, 12379 kPa | 801.538
308.16 K, 18161 kPa | 805.827
308.16 K, 20006 kPa | 807.165
308.16 K, 22192 kPa | 808.686
308.16 K, 25100 kPa | 810.705
308.16 K, 27887 kPa | 812.568
308.16 K, 30041 kPa | 813.99
308.16 K, 31933 kPa | 815.242
308.16 K, 33077 kPa | 815.959
308.16 K, 34026 kPa | 816.482
308.16 K, 35193 kPa | 817.245
308.16 K, 38088 kPa | 818.995
308.16 K, 40106 kPa | 820.225
308.16 K, 42282 kPa | 821.541
308.16 K, 45145 kPa | 823.251
308.16 K, 50089 kPa | 826.126
308.16 K, 52047 kPa | 827.233
308.16 K, 58085 kPa | 830.585
308.16 K, 65217 kPa | 834.405
313.15 K, 82.9 kPa | 787.4
313.15 K, 316.8 kPa | 787.607
313.15 K, 491.8 kPa | 787.767
313.15 K, 890.9 kPa | 788.108
313.15 K, 981.5 kPa | 788.182
313.15 K, 1939.6 kPa | 789.038
313.15 K, 2951 kPa | 789.905
313.15 K, 4889.1 kPa | 791.537
313.15 K, 6856.5 kPa | 793.195
313.15 K, 8886.9 kPa | 794.841
313.15 K, 10029 kPa | 795.77
313.15 K, 11886 kPa | 797.214
313.15 K, 14927 kPa | 799.577
313.15 K, 17845 kPa | 801.775
313.15 K, 20040 kPa | 803.389
313.15 K, 21942 kPa | 804.76
313.15 K, 24894 kPa | 806.85
313.15 K, 28132 kPa | 809.095
313.15 K, 29974 kPa | 810.333
313.15 K, 32058 kPa | 811.716
313.15 K, 35162 kPa | 813.664
313.15 K, 37952 kPa | 815.444
313.15 K, 40011 kPa | 816.732
313.15 K, 41939 kPa | 817.878
313.15 K, 45098 kPa | 819.95
313.15 K, 47966 kPa | 821.512
313.15 K, 49918 kPa | 822.65
313.15 K, 52024 kPa | 823.857
313.15 K, 54951 kPa | 825.557
313.15 K, 58062 kPa | 827.336
313.15 K, 60202 kPa | 828.515
313.15 K, 65050 kPa | 831.15
313.15 K, 66082 kPa | 831.7
313.16 K, 33053 kPa | 812.371
313.16 K, 33131 kPa | 812.356
313.16 K, 34040 kPa | 812.94
313.16 K, 62187 kPa | 829.599
318.15 K, 368.3 kPa | 783.457
318.15 K, 589.4 kPa | 783.667
318.15 K, 9887.6 kPa | 791.657
318.15 K, 33065 kPa | 808.852
318.15 K, 33128 kPa | 808.894
318.15 K, 35190 kPa | 810.134
318.15 K, 48088 kPa | 818.249
318.15 K, 52184 kPa | 820.67
318.15 K, 60194 kPa | 825.273
318.15 K, 62260 kPa | 826.409
318.15 K, 65194 kPa | 828.017
318.15 K, 66060 kPa | 828.484
318.16 K, 128.5 kPa | 783.253
318.16 K, 858.2 kPa | 783.902
318.16 K, 1069.5 kPa | 784.105
318.16 K, 1979.1 kPa | 784.923
318.16 K, 2997.4 kPa | 785.79
318.16 K, 4942.6 kPa | 787.513
318.16 K, 6987.2 kPa | 789.27
318.16 K, 8967.5 kPa | 790.929
318.16 K, 11870 kPa | 793.265
318.16 K, 14863 kPa | 795.639
318.16 K, 17735 kPa | 797.848
318.16 K, 19860 kPa | 799.438
318.16 K, 21987 kPa | 801.004
318.16 K, 25193 kPa | 803.357
318.16 K, 27823 kPa | 805.216
318.16 K, 30119 kPa | 806.799
318.16 K, 32145 kPa | 808.205
318.16 K, 34164 kPa | 809.488
318.16 K, 38074 kPa | 812.009
318.16 K, 40048 kPa | 813.265
318.16 K, 41997 kPa | 814.496
318.16 K, 45096 kPa | 816.426
318.16 K, 50173 kPa | 819.491
318.16 K, 55235 kPa | 822.46
318.16 K, 58075 kPa | 824.084
323.15 K, 62.1 kPa | 778.89
323.15 K, 338 kPa | 779.159
323.15 K, 557.5 kPa | 779.374
323.15 K, 917.3 kPa | 779.697
323.15 K, 2125.4 kPa | 780.833
323.15 K, 3154.8 kPa | 781.778
323.15 K, 5126.4 kPa | 783.557
323.15 K, 7366.8 kPa | 785.517
323.15 K, 9081.6 kPa | 787.01
323.15 K, 10156 kPa | 787.907
323.15 K, 12167 kPa | 789.544
323.15 K, 15030 kPa | 791.876
323.15 K, 18076 kPa | 794.274
323.15 K, 19932 kPa | 795.694
323.15 K, 22079 kPa | 797.333
323.15 K, 25085 kPa | 799.541
323.15 K, 28006 kPa | 801.644
323.15 K, 30029 kPa | 803.084
323.15 K, 31969 kPa | 804.431
